We go through 22 molecules from patent US20240360165A1, “INHIBITORS OF CYCLIN DEPENDENT KINASE 7 (CDK7)” (Syros Pharmaceuticals, Inc., priority 2016, published 2024).

Where two headings read alike, the source gives them in different places.

The target in assay [1] is CDK7/Cyclin H/MAT1 complex (Homo sapiens, UniProt P50613). As to the kind of experiment: CDK7 inhibition assay (Caliper/LabChip EZ Reader kinase assay). Format: biochemical. Particulars: Table 1; CDK7/Cyclin H/MAT1 6 nM, ATP 2 mM, 35 min at 27° C. The gist of the method:
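A Perkin Elmer Caliper/LabChip EZ Reader (Waltham, MA) platform served as the basis for this CDK7 kinase inhibition assay. The work was carried out by Biortus Biosciences, located in Jiangyin, Jiangsu Province, P.R. of China. Each CDK studied had its own kinase assay, and compounds were evaluated for their ability to block CDK7 activity.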

The next assay has as its target CDK9/Cyclin T1 complex (Homo sapiens, UniProt P50750). As to the kind of experiment: CDK9 inhibition assay (Caliper/LabChip EZ Reader kinase assay). Format: biochemical. Particulars: Table 1; CDK9/Cyclin T1 8 nM, ATP 2 mM, 15 min at 27° C. The gist of the method: (§1)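 Caliper/LabChip EZ Reader mobility-shift assays. CDK9/Cyclin T1 at 8 nM with 2 μM 5-FAM-CDK9tide peptide and 10 mM MgCl2; CDK2/Cyclin E1 at 0.5 nM with 2 μM 5-FAM-CDK7tide and 2 mM MgCl2.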

Assay [2] has as its target T1, CDK12 (aa686-1082)/Cyclin K complex (Homo sapiens, UniProt Q9NYV4).
T1 construct: CDK12 (aa686-1082)/Cyclin K complex
The experiment in a line: CDK12 inhibition assay (Caliper/LabChip EZ Reader kinase assay). It is filed as biochemical. Particulars: Table 1; CDK12 (aa686-1082)/Cyclin K 50 nM, ATP 2 mM, 3 hr at 27° C.

For the next assay, the target named is CDK2/Cyclin E1 complex (Homo sapiens, UniProt P24941). As to the kind of experiment: CDK2 inhibition assay (Caliper/LabChip EZ Reader kinase assay). Format: biochemical. Particulars: Table 1; CDK2/Cyclin E1 0.5 nM, ATP 2 mM, 35 min at 27° C. Summed up: as §1
A further assay has as its system A673 cells. As to the kind of experiment: Inhibition of proliferation of A673 cells (CyQUANT, 72 hour). It is filed as cell-based, human. Particulars: A673 cells, 72 hour, CyQUANT, read-out: Inhibition of Proliferation of A673 Cells (calculated IC50). The gist of the method: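 Human Ewing's sarcoma A673 cells in DMEM with 10% FBS and 1 mM sodium pyruvate, 37° C, 5% CO2, treated 72 h with compound from 4 μM to […] (0.5 log dilutions). Antiproliferative effect read by CyQUANT assay.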

Chain of CDK7/Cyclin H/MAT1 complex (P50613 whole entry, species assumed): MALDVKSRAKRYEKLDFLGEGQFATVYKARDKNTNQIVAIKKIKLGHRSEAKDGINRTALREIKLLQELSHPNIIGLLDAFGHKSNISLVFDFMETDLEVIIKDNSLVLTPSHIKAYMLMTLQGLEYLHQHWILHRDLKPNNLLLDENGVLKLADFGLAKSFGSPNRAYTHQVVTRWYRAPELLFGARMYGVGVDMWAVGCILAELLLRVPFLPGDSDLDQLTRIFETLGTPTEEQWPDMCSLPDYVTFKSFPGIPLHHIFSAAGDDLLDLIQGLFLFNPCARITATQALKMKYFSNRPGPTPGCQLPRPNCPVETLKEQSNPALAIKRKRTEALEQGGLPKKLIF
Chain of CDK7/Cyclin H/MAT1 complex (P51946 whole entry partner, species assumed): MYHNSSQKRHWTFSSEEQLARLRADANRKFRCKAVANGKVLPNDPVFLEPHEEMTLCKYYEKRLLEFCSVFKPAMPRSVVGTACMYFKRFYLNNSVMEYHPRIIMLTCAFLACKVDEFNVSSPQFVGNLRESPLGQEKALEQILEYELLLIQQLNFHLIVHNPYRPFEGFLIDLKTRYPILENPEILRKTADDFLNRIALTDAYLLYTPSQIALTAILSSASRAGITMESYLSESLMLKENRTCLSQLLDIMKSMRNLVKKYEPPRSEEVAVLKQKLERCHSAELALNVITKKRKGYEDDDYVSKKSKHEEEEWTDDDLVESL
Chain of CDK7/Cyclin H/MAT1 complex (P51948 whole entry partner, species assumed): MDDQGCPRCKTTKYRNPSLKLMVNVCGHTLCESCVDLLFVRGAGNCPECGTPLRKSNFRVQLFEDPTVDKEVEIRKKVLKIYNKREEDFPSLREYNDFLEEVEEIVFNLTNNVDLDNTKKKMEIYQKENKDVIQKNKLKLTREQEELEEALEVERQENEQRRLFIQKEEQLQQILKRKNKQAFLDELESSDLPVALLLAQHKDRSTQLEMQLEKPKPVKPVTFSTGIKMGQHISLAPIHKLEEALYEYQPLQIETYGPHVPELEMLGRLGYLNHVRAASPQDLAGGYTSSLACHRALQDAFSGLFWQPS
T1 sequence (Q9NYV4 686-1082, species assumed): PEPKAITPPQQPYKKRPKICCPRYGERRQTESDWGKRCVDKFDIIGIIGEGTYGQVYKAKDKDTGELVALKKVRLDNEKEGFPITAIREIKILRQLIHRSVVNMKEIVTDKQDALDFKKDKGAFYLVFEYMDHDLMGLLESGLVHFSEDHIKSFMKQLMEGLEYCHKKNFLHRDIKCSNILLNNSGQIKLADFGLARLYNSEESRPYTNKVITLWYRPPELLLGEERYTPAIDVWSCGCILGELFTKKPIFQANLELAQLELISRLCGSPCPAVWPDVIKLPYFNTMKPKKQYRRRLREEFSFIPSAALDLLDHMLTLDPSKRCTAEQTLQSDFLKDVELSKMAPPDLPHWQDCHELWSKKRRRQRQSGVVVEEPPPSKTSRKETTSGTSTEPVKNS
T1 sequence (O75909 whole entry partner, species assumed, the tested form may be a part): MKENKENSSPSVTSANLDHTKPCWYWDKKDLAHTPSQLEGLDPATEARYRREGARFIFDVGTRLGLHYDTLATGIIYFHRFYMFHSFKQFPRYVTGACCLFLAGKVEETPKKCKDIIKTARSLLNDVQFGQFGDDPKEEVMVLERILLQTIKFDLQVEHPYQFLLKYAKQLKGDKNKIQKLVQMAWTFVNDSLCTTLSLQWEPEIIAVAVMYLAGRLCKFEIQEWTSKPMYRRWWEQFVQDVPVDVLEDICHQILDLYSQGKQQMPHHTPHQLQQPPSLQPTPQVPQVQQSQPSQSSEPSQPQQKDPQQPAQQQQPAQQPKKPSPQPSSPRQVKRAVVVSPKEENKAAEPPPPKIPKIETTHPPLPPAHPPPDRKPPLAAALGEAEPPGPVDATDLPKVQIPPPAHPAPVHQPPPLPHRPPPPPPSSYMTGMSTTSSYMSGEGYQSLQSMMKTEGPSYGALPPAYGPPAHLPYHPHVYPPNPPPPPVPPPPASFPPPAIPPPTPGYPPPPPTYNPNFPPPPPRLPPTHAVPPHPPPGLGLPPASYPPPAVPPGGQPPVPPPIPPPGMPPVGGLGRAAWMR
Chain of CDK9/Cyclin T1 complex (P50750 whole entry, species assumed): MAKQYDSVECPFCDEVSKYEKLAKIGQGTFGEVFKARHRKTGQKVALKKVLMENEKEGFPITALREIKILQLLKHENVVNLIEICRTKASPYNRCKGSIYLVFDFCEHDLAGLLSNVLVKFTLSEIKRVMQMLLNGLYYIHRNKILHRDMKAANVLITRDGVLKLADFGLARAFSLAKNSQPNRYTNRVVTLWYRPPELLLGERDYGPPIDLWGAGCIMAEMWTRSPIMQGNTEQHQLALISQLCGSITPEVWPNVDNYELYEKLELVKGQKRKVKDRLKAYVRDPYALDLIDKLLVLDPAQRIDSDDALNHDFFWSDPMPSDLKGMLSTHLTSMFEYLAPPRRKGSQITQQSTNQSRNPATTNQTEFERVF
Chain of CDK9/Cyclin T1 complex (O60563 whole entry partner, species assumed): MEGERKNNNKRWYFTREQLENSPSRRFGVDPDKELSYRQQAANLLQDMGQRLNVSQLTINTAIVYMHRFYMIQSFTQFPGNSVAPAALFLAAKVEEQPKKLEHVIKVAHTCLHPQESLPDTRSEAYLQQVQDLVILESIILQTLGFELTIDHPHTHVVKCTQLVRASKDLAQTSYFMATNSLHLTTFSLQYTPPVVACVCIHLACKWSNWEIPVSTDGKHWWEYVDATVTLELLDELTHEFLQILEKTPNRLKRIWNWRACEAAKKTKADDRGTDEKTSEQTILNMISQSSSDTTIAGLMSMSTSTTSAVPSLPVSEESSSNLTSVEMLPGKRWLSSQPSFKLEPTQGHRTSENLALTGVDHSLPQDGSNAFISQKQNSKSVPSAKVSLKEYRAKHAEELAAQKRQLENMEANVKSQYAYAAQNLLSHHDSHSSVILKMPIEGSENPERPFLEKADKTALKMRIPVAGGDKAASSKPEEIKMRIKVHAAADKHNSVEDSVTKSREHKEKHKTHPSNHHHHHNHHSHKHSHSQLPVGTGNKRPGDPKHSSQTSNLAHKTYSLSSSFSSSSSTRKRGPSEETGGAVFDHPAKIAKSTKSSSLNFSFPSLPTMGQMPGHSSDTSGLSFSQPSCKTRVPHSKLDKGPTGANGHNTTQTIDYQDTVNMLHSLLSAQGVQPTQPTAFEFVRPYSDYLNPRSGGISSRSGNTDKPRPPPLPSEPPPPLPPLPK

Turning to `O=C(c1ccc2c(-c3nc(N[C@H]4CCCNC4)ncc3C(F)(F)F)c[nH]c2c1)N1CC[C@@H](O)C1` [Compound 205, [(3R)-3-hydroxypyrrolidin-1-yl]-[3-[2-[[(3S)-3-piperidyl]amino]-5-(trifluoromethyl)pyrimidin-4-yl]-1H-indol-6-yl]methanone], the IC50 was under 20 nM in assay [1]; over 5000 nM on CDK9/Cyclin T1 complex; 200 to 5000 nM in assay [2]; over 5000 nM on CDK2/Cyclin E1 complex; 200 to 5000 nM with A673 cells (Homo sapiens, A673, 72 h).

In the case of `FCCc1cnc(N[C@H]2CCCNC2)nc1-c1c[nH]c2ccccc12` [Compound 206], the IC50 in assay [1] is 20 to 200 nM; at CDK9/Cyclin T1 complex, 200 to 5000 nM; in assay [2] it was 200 to 5000 nM; against CDK2/Cyclin E1 complex it was over 5000 nM; in the assay on A673 cells (Homo sapiens, A673, 72 h) it was 200 to 5000 nM.

For `O[C@H]1CC[C@@H](c2cccc3c(-c4nc(N[C@H]5CCCNC5)ncc4C(F)(F)F)c[nH]c32)CC1` [Compound 207], the IC50 in assay [1] was under 20 nM; against CDK9/Cyclin T1 complex, 200 to 5000 nM; in assay [2] it was 200 to 5000 nM; on CDK2/Cyclin E1 complex, 200 to 5000 nM; in the assay on A673 cells (Homo sapiens, A673, 72 h), under 20 nM.

Consider `CC(=O)c1cnc(N[C@H]2CCCNC2)nc1-c1c[nH]c2ccccc12` [Compound 208], for which the IC50 in assay [1] is 20 to 200 nM; against CDK9/Cyclin T1 complex, over 5000 nM; in assay [2], 200 to 5000 nM; against CDK2/Cyclin E1 complex, over 5000 nM; with A673 cells (Homo sapiens, A673, 72 h), 20 to 200 nM.

As to `CC[C@@H]1CC[C@H](Nc2ncc(C(F)(F)F)c(-c3c[nH]c4ccccc34)n2)CN1` [Compound 211], the IC50 was 20 to 200 nM in assay [1]; 200 to 5000 nM on CDK9/Cyclin T1 complex; 200 to 5000 nM in assay [2]; 200 to 5000 nM against CDK2/Cyclin E1 complex; 20 to 200 nM in the assay with A673 cells (Homo sapiens, A673, 72 h).

Take `FC(F)(F)c1cnc(N[C@H]2CCC3(CC3)NC2)nc1-c1c[nH]c2ccccc12` [Compound 212]: the IC50 in assay [1] is under 20 nM; on CDK9/Cyclin T1 complex it was 200 to 5000 nM; in assay [2], 200 to 5000 nM; on CDK2/Cyclin E1 complex, 200 to 5000 nM; in the assay on A673 cells (Homo sapiens, A673, 72 h), under 20 nM.

For the molecule `CC(C)(O)Cn1cc(-c2ccc3c(-c4nc(N[C@H]5CCCNC5)ncc4C(F)(F)F)c[nH]c3c2)cn1` [Compound 214, 2-methyl-1-[4-[3-[2-[[(3S)-3-piperidyl]amino]-5-(trifluoromethyl)pyrimidin-4-yl]-1H-indol-6-yl]pyrazol-1-yl] propan-2-ol], the IC50 is 20 to 200 nM in assay [1]; 200 to 5000 nM against CDK9/Cyclin T1 complex; 200 to 5000 nM in assay [2]; 200 to 5000 nM at CDK2/Cyclin E1 complex; 20 to 200 nM in the assay on A673 cells (Homo sapiens, A673, 72 h).

As for `FC(F)(F)c1cnc(NC2CNCc3ccccc32)nc1-c1c[nH]c2ccccc12` (centres unmarked) [Compound 215], the IC50 in assay [1] is 20 to 200 nM; against CDK9/Cyclin T1 complex it was over 5000 nM; in assay [2] it was over 5000 nM; at CDK2/Cyclin E1 complex it was over 5000 nM; with A673 cells (Homo sapiens, A673, 72 h) it was 200 to 5000 nM.

On to `FC(F)(F)c1cnc(NC2CNCc3ccccc32)nc1-c1c[nH]c2ccccc12` (centres unmarked) [Compound 216], for which the IC50 in assay [1] is 200 to 5000 nM; on CDK9/Cyclin T1 complex, over 5000 nM; in assay [2], over 5000 nM; against CDK2/Cyclin E1 complex, 200 to 5000 nM; with A673 cells, 200 to 5000 nM.

For `CC[C@H]1CC[C@H](Nc2ncc(C(F)(F)F)c(-c3c[nH]c4ccccc34)n2)CN1` [Compound 217], the IC50 in assay [1] was under 20 nM; at CDK9/Cyclin T1 complex, 200 to 5000 nM; in assay [2], 200 to 5000 nM; against CDK2/Cyclin E1 complex it was 200 to 5000 nM; with A673 cells (Homo sapiens, A673, 72 h) it was 20 to 200 nM.

`C=Cc1cnc(N[C@H]2CCCNC2)nc1-c1c[nH]c2ccccc12` [Compound 218]: the IC50 was under 20 nM in assay [1]; 200 to 5000 nM against CDK9/Cyclin T1 complex; 200 to 5000 nM in assay [2]; 200 to 5000 nM against CDK2/Cyclin E1 complex; 20 to 200 nM in the assay with A673 cells (Homo sapiens, A673, 72 h).

Regarding `CS(=O)(=O)Cc1ccc2c(-c3nc(N[C@H]4CCCNC4)ncc3C(F)(F)F)c[nH]c2c1` [Compound 219, 4-[6-(methylsulfonylmethyl)-1H-indol-3-yl]-N-[(3S)-3-piperidyl]-5-(trifluoromethyl) pyrimidin-2-amine], the IC50 was under 20 nM in assay [1]; 200 to 5000 nM against CDK9/Cyclin T1 complex; 200 to 5000 nM in assay [2]; 200 to 5000 nM on CDK2/Cyclin E1 complex; 20 to 200 nM in the assay on A673 cells (Homo sapiens, A673, 72 h).

As for `FC(F)(F)c1cnc(NC2C3CCC2NC3)nc1-c1c[nH]c2ccccc12` (centres unmarked) [Compound 222, N-[4-(1H-indol-3-yl)-5-(trifluoromethyl)pyrimidin-2-yl]-3-azabicyclo [2.2.1]heptan-7-amine], the IC50 was 20 to 200 nM in assay [1]; 200 to 5000 nM against CDK9/Cyclin T1 complex; 200 to 5000 nM in assay [2]; 200 to 5000 nM against CDK2/Cyclin E1 complex; 20 to 200 nM in the assay with A673 cells (Homo sapiens, A673, 72 h).

For the molecule `FC(F)(F)c1cnc(N[C@H]2CCCNC2)nc1-c1c[nH]c2cc(-c3cccnc3)ccc12` [Compound 223, N-[(3S)-3-piperidyl]-4-[6-(3-pyridyl)-1H-indol-3-yl]-5-(trifluoromethyl) pyrimidin-2-amine], the IC50 in assay [1] is under 20 nM; at CDK9/Cyclin T1 complex it was 200 to 5000 nM; in assay [2] it was 200 to 5000 nM; on CDK2/Cyclin E1 complex it was 200 to 5000 nM; with A673 cells (Homo sapiens, A673, 72 h) it was 20 to 200 nM.

Take `FC(F)(F)c1cnc(N[C@H]2CCCNC2)nc1-c1c[nH]c2cc(-c3ccncc3)ccc12` [Compound 224, N-[(3S)-3-piperidyl]-4-[6-(4-pyridyl)-1H-indol-3-yl]-5-(trifluoromethyl) pyrimidin-2-amine]: the IC50 is under 20 nM in assay [1]; 200 to 5000 nM against CDK9/Cyclin T1 complex; 200 to 5000 nM in assay [2]; 200 to 5000 nM against CDK2/Cyclin E1 complex; 20 to 200 nM in the assay with A673 cells (Homo sapiens, A673, 72 h).

As for `Cn1cc(-c2ccc3c(-c4nc(N[C@H]5CCCNC5)ncc4C(F)(F)F)c[nH]c3c2)cc1C#N` [Compound 225, 1-methyl-4-[3-[2-[[(3S)-3-piperidyl]amino]-5-(trifluoromethyl)pyrimidin-4-yl]-1H-indol-6-yl] pyrrole-2-carbonitrile], the IC50 is under 20 nM in assay [1]; 200 to 5000 nM on CDK9/Cyclin T1 complex; 200 to 5000 nM in assay [2]; 200 to 5000 nM on CDK2/Cyclin E1 complex; 20 to 200 nM with A673 cells (Homo sapiens, A673, 72 h).

On to `Cc1nn(C)cc1-c1ccc2c(-c3nc(N[C@H]4CCCNC4)ncc3C(F)(F)F)c[nH]c2c1` [Compound 226, 4-[6-(1,3-dimethylpyrazol-4-yl)-1H-indol-3-yl]-N-[(3S)-3-piperidyl]-5-(trifluoromethyl) pyrimidin-2-amine], for which the IC50 in assay [1] was under 20 nM; against CDK9/Cyclin T1 complex, 200 to 5000 nM; in assay [2], 200 to 5000 nM; on CDK2/Cyclin E1 complex, 200 to 5000 nM; in the assay with A673 cells (Homo sapiens, A673, 72 h) it was under 20 nM.

On to `Cc1c(-c2ccc3c(-c4nc(N[C@H]5CCCNC5)ncc4C(F)(F)F)c[nH]c3c2)cnn1C` [Compound 227, 4-[6-(1,5-dimethylpyrazol-4-yl)-1H-indol-3-yl]-N-[(3S)-3-piperidyl]-5-(trifluoromethyl) pyrimidin-2-amine], for which the IC50 in assay [1] is under 20 nM; at CDK9/Cyclin T1 complex, 200 to 5000 nM; in assay [2], 200 to 5000 nM; against CDK2/Cyclin E1 complex, 200 to 5000 nM; with A673 cells (Homo sapiens, A673, 72 h) it was 20 to 200 nM.

On to `O=C([C@H]1CC[C@H](Nc2ncc(C(F)(F)F)c(-c3c[nH]c4ccccc34)n2)CN1)N1CCCC1` [Compound 228], for which the IC50 in assay [1] was under 20 nM; against CDK9/Cyclin T1 complex it was 200 to 5000 nM; in assay [2], 200 to 5000 nM; at CDK2/Cyclin E1 complex it was 200 to 5000 nM; with A673 cells (Homo sapiens, A673, 72 h), 20 to 200 nM.

With `Cc1n[nH]cc1-c1ccc2c(-c3nc(N[C@H]4CCCNC4)ncc3C(F)(F)F)c[nH]c2c1` [Compound 229, 4-[6-(3-methyl-1H-pyrazol-4-yl)-1H-indol-3-yl]-N-[(3S)-3-piperidyl]-5-(trifluoromethyl) pyrimidin-2-amine], the IC50 in assay [1] is under 20 nM; on CDK9/Cyclin T1 complex it was 200 to 5000 nM; in assay [2], 200 to 5000 nM; against CDK2/Cyclin E1 complex, 200 to 5000 nM; in the assay on A673 cells (Homo sapiens, A673, 72 h), under 20 nM.

`FC(F)(F)c1cnc(N[C@H]2CCCNC2)nc1-c1c[nH]c2cc(-c3ccnnc3)ccc12` [Compound 230, N-[(3S)-3-piperidyl]-4-(6-pyridazin-4-yl-1H-indol-3-yl)-5-(trifluoromethyl) pyrimidin-2-amine]: the IC50 in assay [1] was under 20 nM; on CDK9/Cyclin T1 complex it was 200 to 5000 nM; in assay [2], 200 to 5000 nM; at CDK2/Cyclin E1 complex it was 200 to 5000 nM; in the assay on A673 cells (Homo sapiens, A673, 72 h) it was 20 to 200 nM.

As for `CCc1cnc(-c2c[nH]c3ncc(F)cc23)nc1N[C@H]1CCCNC1` [Compound 231, 5-ethyl-2-(5-fluoro-1H-pyrrolo [2,3-b]pyridin-3-yl)-N-[(3S)-3-piperidyl] pyrimidin-4-amine], the IC50 in assay [1] is over 5000 nM; against CDK9/Cyclin T1 complex, over 5000 nM; in assay [2], over 5000 nM; against CDK2/Cyclin E1 complex, over 5000 nM; in the assay with A673 cells (Homo sapiens, A673, 72 h), 200 to 5000 nM.
